# Measurements taken from PMC8713164, “Development of a 1,2,4-Triazole-Based Lead Tankyrase Inhibitor: Part II” (Journal of Medicinal Chemistry, 2021).
# pIC50: −log10 of the molar value. Where two headings read alike, the source gives them in different places.
# Key:
# [1] = target: T1, TNKS2 (Homo sapiens, UniProt Q9H2K2); experiment: TNKS2 biochemical assay (unreacted NAD+ fluorescence)
# T1 construct: TNKS2 (residues 873–1162); made in house
# T1 sequence (Q9H2K2 873-1162): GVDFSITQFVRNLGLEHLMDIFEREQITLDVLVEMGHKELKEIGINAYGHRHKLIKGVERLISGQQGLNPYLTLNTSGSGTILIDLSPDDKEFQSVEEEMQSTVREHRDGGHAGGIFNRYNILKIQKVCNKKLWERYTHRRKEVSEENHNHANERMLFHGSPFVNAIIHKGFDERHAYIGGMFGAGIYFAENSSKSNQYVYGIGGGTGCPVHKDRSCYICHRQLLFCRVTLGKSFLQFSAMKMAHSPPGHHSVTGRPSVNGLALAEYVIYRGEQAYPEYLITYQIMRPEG
# Procedure: New compounds were prepared in half-log dilution series, and the reactions were carried out in quadruplicates with protein and compound controls to exclude the effect of compound autofluorescence. All reactions were performed at ambient temperature. TNKS1 (20 nM) or TNKS2 (5 nM) was incubated for 20 h in assay buffer (50 mM Bis-Tris propane (BTP), pH 7.0, 0.5 mM Tris(2-carboxyethyl)phosphine (TCEP), 0.01% Triton X-100) with compound and 10 μM or 500 nM NAD^+, respectively.
# [2] = test system: WNT/β-catenin signaling; experiment: cellular (HEK293) WNT/β-catenin signaling luciferase reporter assay; type: cell-based, human
# [3] = test system: RKO cells; experiment: MTS colorimetric cell growth assay, RKO; type: cell-based, human
# Procedure: (§1) After 5 days, the antiproliferative effect of compound treatment was measured at 490 nm. Mean value ± standard deviation (SD) for one representative experiment of more than three repeated assays, each with six replicates, are shown. […] (b) Representative immunoblots of cytoplasmic TNKS1/2, AXIN1, AXIN2, and cytoplasmic and nuclear transcriptionally active β-catenin (non-phospho) and β-catenin. […] For (b) and (c), control = 0.001% DMSO. (c) Real-time RT-qPCR analyses of WNT/β-catenin signaling target genes (AXIN2, DKK1, NKD1, and APCDD1). Boxplots show median, first and third quartiles, and maximum and minimum whiskers for combined data from three independent experiments with three replicates each. Dotted lines depict the control mean value = 1. For (a) and (c), analysis of variance (ANOVA) tests (Holm–Sidak method, versus control) are indicated by *** (p < 0.001) and * (p < 0.05), while ANOVA on ranks tests (Dunn’s method, versus control) are indicated by ^† (p < 0.05).
# Antiproliferative assays using colon cancer cell lines COLO 320DM and RKO were performed as previously described.[39]
# [4] = mouse peroral pharmacokinetic analysis; type: in vivo; settings: mouse PO 5 mg/kg
# Procedure: The pharmacokinetic analyses in mice were performed according to the standard protocols of Medicilon as previously described[21] following approval by local animal experiment authorities (Shanghai, China) and in compliance with FELASA guidelines and recommendations. Three IRC mice were used per treatment group: 5 mg/kg 24 in 5% DMSO, 50% PEG400 (both Sigma-Aldrich), and 45% saline as vehicle.
# [5] = in vitro; type: in vitro ADME; settings: human, Caco-2
# Procedure: (§2) Kinetic solubility, microsomal stability, and plasma stability were determined following our internal protocol (Symeres). The Caco-2 and PPB determinations were performed by Cyprotex.
# [6] = microsomal stability, human; type: in vitro ADME; settings: microsomes
# Procedure: as §2
# [7] = microsomal stability, mouse; type: in vitro ADME; settings: microsomes
# Procedure: as §2
# [8] = microsomal stability, dog; type: in vitro ADME; settings: microsomes
# Procedure: as §2
# [9] = mouse plasma protein binding; type: in vitro ADME; settings: read-out: mouse PPB (converted)
# Procedure: as §2
# [10] = target: PARP1/2/3/4/10/12/14/15; experiment: PARP enzyme panel, summary line of Table 5; type: biochemical; settings: one bound for all eight PARPs
# Procedure: (§3) All reactions were performed at ambient temperature.
# (§4) The assay conditions for the other PARP enzymes were used as previously described.[39]
# [11] = target: T2, PARP2 (Homo sapiens, UniProt Q9UGN5); experiment: PARP2 biochemical assay; settings: > under 50% inhibition
# T2 construct: made in house
# Procedure: as §3, §4
# [12] = target: T3, PARP4 (Homo sapiens, UniProt Q9UKK3); experiment: PARP4 biochemical assay; settings: > under 50% inhibition
# T3 construct: made in house
# Procedure: as §3, §4
# [13] = target: T4, PARP12 (Homo sapiens, UniProt Q9H0J9); experiment: PARP12 biochemical assay; settings: >>: no inhibition detected; concentration limited by DMSO tolerance
# T4 construct: made in house
# Procedure: as §3, §4
# [14] = target: T5, PARP15 (Homo sapiens, UniProt Q460N3); experiment: PARP15 biochemical assay; settings: >>: no inhibition detected; concentration limited by DMSO tolerance
# T5 construct: made in house
# Procedure: as §3, §4
# [15] = target: T6, hERG (Homo sapiens, UniProt Q12809); experiment: hERG inhibition
# T6 construct: Eurofins (Cerep), contract assay
# Procedure: (§5) A safety panel (Cerep) of 44 selected targets (n = 2) including hERG Inhibition using 10 μM 24 was performed by Eurofins. Ames and CYP3A4 inhibition assays were performed by Cyprotex, and the PXR assay (CYP induction) was performed at Admescope. The PARP assays are described below.
# [16] = Ames test
# Procedure: as §5
# [17] = target: T7, CYP3A4 (Homo sapiens, UniProt P08684); experiment: CYP3A4 inhibition; type: in vitro ADME
# T7 construct: Cyprotex, contract assay
# Procedure: as §5
# [18] = target: T8, human PXR (Homo sapiens, UniProt O75469); experiment: PXR assay (CYP induction); type: in vitro ADME; settings: highest concentration, 100 μM
# T8 construct: Admescope, contract assay
# Procedure: as §5
# [19] = test system: COLO 320DM cells; experiment: Western blot of cytoplasmic and nuclear lysates of treated COLO 320DM cells; type: cell-based, human
# Procedure: as §1
# Western blot analysis of nuclear and cytoplasmic lysates from compound-treated COLO 320DM cells was performed as previously described.[39],[50]
# T7 sequence (P08684 whole entry): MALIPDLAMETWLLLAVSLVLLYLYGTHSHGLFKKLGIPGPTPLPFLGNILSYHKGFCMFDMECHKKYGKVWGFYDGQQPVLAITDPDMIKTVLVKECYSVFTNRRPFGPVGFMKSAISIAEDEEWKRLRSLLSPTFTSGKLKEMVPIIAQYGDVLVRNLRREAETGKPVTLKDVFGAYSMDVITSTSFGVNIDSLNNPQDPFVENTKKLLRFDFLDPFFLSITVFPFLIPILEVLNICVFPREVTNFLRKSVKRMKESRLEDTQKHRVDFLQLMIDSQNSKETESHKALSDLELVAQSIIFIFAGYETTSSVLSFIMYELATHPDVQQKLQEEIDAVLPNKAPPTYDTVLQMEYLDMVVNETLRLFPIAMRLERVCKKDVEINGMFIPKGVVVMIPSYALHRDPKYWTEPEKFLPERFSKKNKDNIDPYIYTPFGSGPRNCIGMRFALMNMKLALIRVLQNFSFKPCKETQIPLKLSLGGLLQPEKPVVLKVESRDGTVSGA
# T4 sequence (Q9H0J9 whole entry): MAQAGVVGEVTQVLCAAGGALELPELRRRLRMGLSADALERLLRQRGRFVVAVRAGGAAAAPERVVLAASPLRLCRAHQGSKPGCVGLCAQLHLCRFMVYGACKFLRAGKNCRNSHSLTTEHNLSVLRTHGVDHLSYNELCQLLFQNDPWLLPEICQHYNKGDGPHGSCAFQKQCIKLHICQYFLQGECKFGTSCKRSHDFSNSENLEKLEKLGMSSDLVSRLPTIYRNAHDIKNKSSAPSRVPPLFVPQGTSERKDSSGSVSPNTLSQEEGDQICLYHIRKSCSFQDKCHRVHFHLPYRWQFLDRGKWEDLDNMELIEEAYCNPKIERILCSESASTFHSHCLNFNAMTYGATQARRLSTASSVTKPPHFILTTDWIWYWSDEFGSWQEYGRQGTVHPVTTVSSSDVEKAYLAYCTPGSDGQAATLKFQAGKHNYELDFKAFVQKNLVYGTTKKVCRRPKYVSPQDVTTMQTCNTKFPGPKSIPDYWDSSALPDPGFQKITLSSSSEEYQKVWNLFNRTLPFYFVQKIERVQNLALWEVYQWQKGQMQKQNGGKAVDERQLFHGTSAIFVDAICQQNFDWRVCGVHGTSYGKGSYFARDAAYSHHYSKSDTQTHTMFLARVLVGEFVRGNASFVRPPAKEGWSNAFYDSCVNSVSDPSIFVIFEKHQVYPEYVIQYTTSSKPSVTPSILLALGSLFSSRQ
# T5 sequence (Q460N3 whole entry): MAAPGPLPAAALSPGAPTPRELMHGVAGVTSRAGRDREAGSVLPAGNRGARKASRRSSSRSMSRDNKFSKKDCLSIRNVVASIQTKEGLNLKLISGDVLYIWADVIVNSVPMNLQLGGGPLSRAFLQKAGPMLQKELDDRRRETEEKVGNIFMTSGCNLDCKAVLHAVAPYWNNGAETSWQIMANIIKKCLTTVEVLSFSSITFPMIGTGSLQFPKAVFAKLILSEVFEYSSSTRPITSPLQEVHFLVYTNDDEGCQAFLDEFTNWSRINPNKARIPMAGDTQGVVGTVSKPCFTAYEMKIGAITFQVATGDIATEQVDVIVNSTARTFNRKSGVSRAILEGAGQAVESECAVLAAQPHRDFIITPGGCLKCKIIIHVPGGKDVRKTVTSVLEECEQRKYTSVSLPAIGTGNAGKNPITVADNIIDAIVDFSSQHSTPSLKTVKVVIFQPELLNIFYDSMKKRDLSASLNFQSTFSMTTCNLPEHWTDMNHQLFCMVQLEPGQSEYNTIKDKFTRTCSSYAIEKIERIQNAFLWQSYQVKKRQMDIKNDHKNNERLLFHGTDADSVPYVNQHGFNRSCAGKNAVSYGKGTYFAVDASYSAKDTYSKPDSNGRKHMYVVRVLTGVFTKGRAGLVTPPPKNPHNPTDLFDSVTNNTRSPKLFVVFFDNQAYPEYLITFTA
# T2 sequence (Q9UGN5 whole entry): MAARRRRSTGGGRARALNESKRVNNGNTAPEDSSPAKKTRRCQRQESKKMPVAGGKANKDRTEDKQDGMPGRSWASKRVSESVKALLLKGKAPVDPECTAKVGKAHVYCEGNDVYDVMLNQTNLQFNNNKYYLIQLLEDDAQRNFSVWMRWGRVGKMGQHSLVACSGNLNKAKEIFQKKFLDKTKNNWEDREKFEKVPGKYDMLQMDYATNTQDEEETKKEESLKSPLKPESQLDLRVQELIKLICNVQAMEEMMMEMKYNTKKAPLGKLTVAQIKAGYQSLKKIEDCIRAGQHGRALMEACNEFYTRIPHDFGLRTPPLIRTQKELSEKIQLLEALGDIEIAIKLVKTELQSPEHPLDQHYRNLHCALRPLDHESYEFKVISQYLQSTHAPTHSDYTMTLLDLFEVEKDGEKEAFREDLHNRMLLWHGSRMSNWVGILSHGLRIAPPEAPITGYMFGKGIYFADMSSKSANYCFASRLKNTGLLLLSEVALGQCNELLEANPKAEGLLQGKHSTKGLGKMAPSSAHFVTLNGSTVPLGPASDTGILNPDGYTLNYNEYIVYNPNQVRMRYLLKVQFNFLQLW
# T8 sequence (O75469 whole entry): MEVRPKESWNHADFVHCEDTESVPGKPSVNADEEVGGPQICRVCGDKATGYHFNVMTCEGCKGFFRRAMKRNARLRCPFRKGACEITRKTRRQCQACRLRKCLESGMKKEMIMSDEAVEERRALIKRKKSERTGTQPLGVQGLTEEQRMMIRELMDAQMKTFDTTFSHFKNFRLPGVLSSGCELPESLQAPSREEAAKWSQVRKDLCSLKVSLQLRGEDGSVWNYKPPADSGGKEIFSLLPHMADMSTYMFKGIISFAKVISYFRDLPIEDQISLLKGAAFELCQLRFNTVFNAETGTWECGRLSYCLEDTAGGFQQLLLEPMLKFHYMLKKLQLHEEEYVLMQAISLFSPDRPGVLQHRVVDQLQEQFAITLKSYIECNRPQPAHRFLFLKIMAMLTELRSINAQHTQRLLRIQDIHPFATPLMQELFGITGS
# T6 sequence (Q12809 whole entry): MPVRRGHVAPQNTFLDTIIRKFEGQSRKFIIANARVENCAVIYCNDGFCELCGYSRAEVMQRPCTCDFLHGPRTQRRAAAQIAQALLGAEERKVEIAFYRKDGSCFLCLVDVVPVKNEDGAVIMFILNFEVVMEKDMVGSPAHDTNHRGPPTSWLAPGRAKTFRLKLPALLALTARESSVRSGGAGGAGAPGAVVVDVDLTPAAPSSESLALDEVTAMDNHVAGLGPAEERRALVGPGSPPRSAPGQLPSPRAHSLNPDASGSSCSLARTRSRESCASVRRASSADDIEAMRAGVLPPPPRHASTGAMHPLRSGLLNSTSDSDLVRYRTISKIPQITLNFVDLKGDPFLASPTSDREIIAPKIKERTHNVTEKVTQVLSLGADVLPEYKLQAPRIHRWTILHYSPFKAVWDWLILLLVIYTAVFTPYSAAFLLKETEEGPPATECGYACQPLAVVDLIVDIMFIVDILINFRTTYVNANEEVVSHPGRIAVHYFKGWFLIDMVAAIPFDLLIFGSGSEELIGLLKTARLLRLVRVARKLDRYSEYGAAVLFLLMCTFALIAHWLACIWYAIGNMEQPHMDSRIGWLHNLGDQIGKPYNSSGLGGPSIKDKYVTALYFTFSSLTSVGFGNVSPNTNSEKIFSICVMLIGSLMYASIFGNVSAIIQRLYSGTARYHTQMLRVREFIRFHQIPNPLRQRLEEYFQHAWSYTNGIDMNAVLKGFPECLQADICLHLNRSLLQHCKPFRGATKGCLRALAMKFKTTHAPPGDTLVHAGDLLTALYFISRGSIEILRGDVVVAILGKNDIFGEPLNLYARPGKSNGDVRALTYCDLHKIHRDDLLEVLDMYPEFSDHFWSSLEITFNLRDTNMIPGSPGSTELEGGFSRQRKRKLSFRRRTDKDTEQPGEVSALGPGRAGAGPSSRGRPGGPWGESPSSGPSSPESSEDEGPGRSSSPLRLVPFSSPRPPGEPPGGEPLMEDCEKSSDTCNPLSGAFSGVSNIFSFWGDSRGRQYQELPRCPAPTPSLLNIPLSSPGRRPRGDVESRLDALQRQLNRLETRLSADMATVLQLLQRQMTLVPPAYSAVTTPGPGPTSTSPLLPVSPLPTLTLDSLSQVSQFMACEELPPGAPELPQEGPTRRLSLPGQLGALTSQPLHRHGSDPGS
smiles,measurement,setting,value
"CCOc1ccc(-c2nnc([C@H]3C[C@H](NC(=O)c4cccc5nccnc45)C3)n2-c2ccccc2F)nc1 [Compound 24, N-(trans-3-(5-(5-Ethoxypyridin-2-yl)-4-(2-fluorophenyl)-4H-1,2,4-triazol-3-yl)cyclobutyl)quinoxaline-5-carboxamide]",pIC50,[1]; IC50 TNKS2,8.74
same,pIC50,"[1]; IC50 TNKS2, TNKS2 5 nM, 500 nM NAD+, 20 h, quadruplicates, 95% confidence intervals in parentheses, 24: averages of multiple independent measurements",8.80
same,TNKS2 pIC50 ± SEM,"[1]; TNKS2 5 nM, 500 nM NAD+, 20 h",2.0 (8.71 ± 0.069)
same,pIC50,"[1]; TNKS2 pIC50 ± SEM, TNKS2 5 nM, 500 nM NAD+, 20 h",8.79
same,pIC50,[1]; read-out: IC50 TNKS2,8.70
same,IC50,"[2]; Homo sapiens, HEK293, read-out: HEK293 reporter assay pIC50 ± SEM (converted)",0.603 nM
same,pIC50,"[2]; Homo sapiens, HEK293, read-out: IC50 HEK293, HEK293 WNT/β-catenin signaling reporter assay, triplicates, 24: averages of multiple independent measurements",9.20
same,efficacy in the cellular WNT/β-catenin signaling reporter assay relative to 1,[2]; times higher than 1,approximately 30 times
same,effect of treatment on RKO cell viability,[3]; APC wild-type control colon cancer line,only modestly affected
same,GI50,"[3]; Homo sapiens, RKO, 120 h, read-out: RKO cells GI50",> 10 µM
same,AUC(0-inf) at 24 h,"[4]; IRC, in vivo",5040 ng·h/mL
same,AUC(0-t),"[4]; IRC, in vivo",4940 ng·h/mL
same,Cmax at 24 h,"[4]; IRC, in vivo",1970 ng/mL
same,Tmax at 24 h,"[4]; IRC, in vivo",30 min
same,half-life at 24 h,"[4]; IRC, in vivo",90 min
same,MRT inf at 24 h,"[4]; IRC, in vivo, read-out: MRT 0 → ∞",2.39 h
same,CL,[4],0.99 L/h/kg
same,Vd,[4],2.15 L/kg
same,peak value (Cmax) relative to that of 1,[4],about 60%
same,"Papp A→B at 2 h, 10 µM",[5],40.5 ×10⁻⁶ cm/s
same,efflux ratio,[5],0.64
same,microsomal CLint at 1 h,[6],18 µL/min/mg
same,microsomal CLint at 1 h,[7],22 µL/min/mg
same,microsomal CLint at 1 h,[8],3.8 µL/min/mg
same,fraction unbound,[9],0.0142
same,pIC50,[10],< 5.00
same,pIC50,[11],< 4.00
same,pIC50,[12],< 4.00
same,pIC50,[13],< 5.00
same,pIC50,[14],< 5.00
same,pIC50,[15],< 4.60
same,Ames test,[16],nongenotoxic
same,pIC50,[17],< 4.60
same,CYP induction (human PXR),[18],nonactivator ^b ^c
same,level of transcriptionally active β-catenin (nonphosphorylated),[19]; cytoplasmic and nuclear fractions,reduced
same,TNKS1/2 protein levels,"[19]; dose-dependent, immunoblot",either increased or decreased
same,AXIN1 and AXIN2 protein levels,[19]; immunoblot,stabilized
